Assay results: US8003658B2, “Quinazoline derivatives for inhibiting cancer cell growth and method for the preparation thereof” (Hanmi Holdings Co., Ltd., priority 2004, dated 2011)
Like-named read-outs stand apart in the source and are kept apart here.

Columns and labels:
SK-Br3 (ATCC: HTB-30) = assay: Test of cancer cell growth inhibition (SRB), SK-Br3; conditions: read-out: IC50 SK-Br-3
A431 (ATCC: CRL-1555) = assay: Test of cancer cell growth inhibition (SRB), A431; conditions: read-out: IC50 A431
[1] = Erb-B2 overexpressed SK-Br3, 72 hours, SRB
[2] = EGFR overexpressed A431, 72 hours, SRB

Row | SMILES | IC50 (SK-Br3 (ATCC: HTB-30); [1]) | IC50 (A431 (ATCC: CRL-1555); [2]) | IC50 (SK-Br3 (ATCC: HTB-30); Homo sapiens, SK-BR-3, 72 h) | IC50 (A431 (ATCC: CRL-1555); Homo sapiens, A-431, 72 h)
1 | O=C(CCc1ccccc1)NCCC(=O)Nc1ccc2ncnc(Nc3ccc(OCc4cccc(F)c4)c(Cl)c3)c2c1 [Example 23, 3-phenyl-propionylic acid (2-{4-[3-chloro-4-(3-fluoro-benzyloxy)-phenylamino]-quinazolin-6-ylcarbamoyl}-ethyl)-amide] | 0.359 µM | 0.316 µM |  | 
2 | C=CC(=O)N1C[C@H](S(=O)(=O)CC)C[C@H]1C(=O)Nc1ccc2ncnc(Nc3ccc(OCc4ccccn4)c(Cl)c3)c2c1 [Example 160, (2S,4R)-1-acryloyl-4-ethanesulfonyl-pyrrolidine-2-carboxylic acid {4-[3-chloro-4-(pyridin-2-ylmethoxy)-phenylamino]-quinazolin-6-yl}-amide] |  |  | 0.437 µM | 6.93 µM
3 | Cc1cc(C(=O)NCCC(=O)Nc2ccc3ncnc(Nc4ccc(OCc5cccc(F)c5)c(Cl)c4)c3c2)on1 [Example 32, 3-methyl-isoxazol-5-carboxylic acid (2-{4-[3-chloro-4-(3-fluoro-benzyloxy)-phenylamino]-quinazolin-6-ylcarbamoyl}-ethyl)-amide] |  |  | 0.163 µM | 0.312 µM
4 | Cc1oncc1C(=O)NCCC(=O)Nc1ccc2ncnc(Nc3ccc(OCc4cccc(F)c4)c(Cl)c3)c2c1 [Example 136] | 1.71 µM | 0.828 µM |  | 
5 | O=C(CCCNC(=O)c1ccoc1)Nc1ccc2ncnc(Nc3ccc(OCc4cccc(F)c4)c(Cl)c3)c2c1 [Example 94, furan-3-carboxylic acid (3-{4-[3-chloro-4-(3-fluoro-benzyloxy)-phenylamino]-quinazolin-6-ylcarbamoyl}-propyl)-amide] |  |  | 0.07 µM | 0.245 µM
6 | CN(C)CCOCC(=O)NCCC(=O)Nc1ccc2ncnc(Nc3ccc(OCc4cccc(F)c4)c(Cl)c3)c2c1 [Example 122, N-{4-[3-chloro-4-(3-fluoro-benzyloxy)-phenylamino]-quinazolin-6-yl}-3-[2-(2-dimethylamino-ethoxy)-acetylamino]-propionamide] |  |  | 0.085 µM | 0.617 µM
7 | COCC(=O)N[C@H](C(=O)Nc1ccc2ncnc(Nc3ccc(OCc4cccc(F)c4)c(Cl)c3)c2c1)c1ccccc1 [Example 11, (2S)—N-{4-[3-chloro-4-(3-fluoro-benzyloxy)-phenylamino]-quinazolin-6-yl}-2-(2-methoxy-acetylamino)-2-phenyl-acetamide] |  |  | 0.113 µM | 0.252 µM
8 | COC(=O)NCCC(=O)Nc1ccc2ncnc(Nc3ccc(OCc4cccc(F)c4)c(Cl)c3)c2c1 [Example 126, (2-{4-[3-chloro-4-(3-fluoro-benzyloxy)-phenylamino]-quinazolin-6-ylcarbamoyl}-ethyl)-carbamic acid methylester] |  |  | 0.091 µM | 0.099 µM
9 | O=C(CCCNC(=O)c1cn[nH]c1)Nc1ccc2ncnc(Nc3ccc(OCc4cccc(F)c4)c(Cl)c3)c2c1 [Example 95, 1H-pyrazol-4-carboxylic acid (3-{4-[3-chloro-4-(3-fluoro-benzyloxy)-phenylamino]-quinazolin-6-ylcarbamoyl}-propyl)-amide] |  |  | 0.331 µM | 0.994 µM
10 | COCC(=O)N[C@@H](CCSC)C(=O)Nc1ccc2ncnc(Nc3ccc(OCc4cccc(F)c4)c(Cl)c3)c2c1 [Example 7-2, (2S)—N-{4-[3-chloro-4-(3-fluoro-benzyloxy)-phenylamino]-quinazolin-6-yl}-2-(2-methoxy-acetylamino)-4-methanesulfanyl-butyramide] | 0.261 µM | 0.74 µM |  | 
11 | CN1CCN(CC(=O)NCCC(=O)Nc2ccc3ncnc(Nc4ccc(OCc5cccc(F)c5)c(Cl)c4)c3c2)CC1 [Example 64, N-{4-[3-chloro-4-(3-fluoro-benzyloxy)-phenylamino]-quinazolin-6-yl}-3-[2-(4-methyl-piperazin-1-yl)-acetylamino]-propionamide] |  |  | 0.212 µM | 0.698 µM
12 | CC(C)(C)OC(=O)NCCCCC(=O)Nc1ccc2ncnc(Nc3ccc(OCc4cccc(F)c4)c(Cl)c3)c2c1 [Example 114, (4-{4-[3-chloro-4-(3-fluoro-benzyloxy)-phenylamino]-quinazolin-6-ylcarbamoyl}-butyl)-carbamic acid t-butylester] |  |  | 0.216 µM | 0.136 µM
13 | Cc1ccc(Oc2ccc(Nc3ncnc4ccc(NC(=O)CCNC(=O)CS(C)(=O)=O)cc34)cc2C)cn1 [Example 50-2, 3-(2-methanesulfonyl-acetylamino)-N-{4-[3-methyl-4-(6-methyl-pyridin-3-yloxy)-phenylamino]-quinazolin-6-yl}-propionamide] |  |  | 0.099 µM | 0.845 µM
14 | O=C(CCNC(=O)Nc1ccccc1)Nc1ccc2ncnc(Nc3ccc(OCc4cccc(F)c4)c(Cl)c3)c2c1 [Example 124, N-{4-[3-chloro-4-(3-fluoro-benzyloxy)-phenylamino]-quinazolin-6-yl}-3-(3-phenyl-ureido)-propionamide] |  |  | 0.107 µM | 0.584 µM
15 | C=CC(=O)N1CCC(C(=O)Nc2cc3c(Nc4ccc(OCc5ccccn5)c(Cl)c4)ncnc3cc2OC)CC1 [Example 197, 1-acryloyl-piperidine-4-carboxylic acid {4-[3-chloro-4-(pyridin-2-ylmethoxy)-phenylamino]-7-methoxy-quinazolin-6-yl}-amide] |  |  | 0.196 µM | 0.259 µM

Further compounds by falling IC50 (SK-Br3 (ATCC: HTB-30); Homo sapiens, SK-BR-3, 72 h), results first:

Row | IC50 (SK-Br3 (ATCC: HTB-30); [1]) | IC50 (A431 (ATCC: CRL-1555); [2]) | IC50 (SK-Br3 (ATCC: HTB-30); Homo sapiens, SK-BR-3, 72 h) | IC50 (A431 (ATCC: CRL-1555); Homo sapiens, A-431, 72 h) | SMILES
16 |  |  | 0.069 µM | 0.616 µM | CC(=O)OCC(=O)NCCC(=O)Nc1ccc2ncnc(Nc3ccc(OCc4cccc(F)c4)c(Cl)c3)c2c1 [Example 121, acetic acid (2-{4-[3-chloro-4-(3-fluoro-benzyloxy)-phenylamino]-quinazolin-6-ylcarbamoyl}-ethylcarbamoyl)-methylester]
17 |  |  | 0.063 µM | 0.438 µM | C=CC(=O)N1CSC[C@H]1C(=O)Nc1cc2c(Nc3ccc(OCc4ccccn4)c(Cl)c3)ncnc2cc1OC [Example 180, (4R)-3-acryloyl-thiazolidin-4-carboxylic acid {4-[3-chloro-4-(pyridin-2-ylmethoxy)-phenylamino]-7-methoxy-quinazolin-6-yl}-amide]
18 |  |  | 0.051 µM | 0.641 µM | CS(=O)(=O)CCNCC(=O)NCCCC(=O)Nc1ccc2ncnc(Nc3ccc(OCc4cccc(F)c4)c(Cl)c3)c2c1 [Example 107, N-{4-[3-chloro-4-(3-fluoro-benzyloxy)-phenylamino]-quinazolin-6-yl}-4-[2-(2-methanesulfonyl-ethylamino)-acetylamino]-butyramide]
19 |  |  | 0.034 µM | 0.269 µM | C=CC(=O)N1CCC[C@H]1C(=O)Nc1cc2c(Nc3ccc(OCCF)c(Cl)c3)ncnc2cc1OC [Example 203, (2S)-1-acryloyl-pyrrolidine-2-carboxylic acid {4-[3-chloro-4-(2-fluoro-ethoxy)-phenylamino]-7-methoxy-quinazolin-6-yl}-amide]
20 |  |  | 0.021 µM | 0.042 µM | C=CC(=O)N[C@@H](CC(C)C)C(=O)Nc1ccc2ncnc(Nc3ccc(OCc4ccccn4)c(Cl)c3)c2c1 [Example 225, (2S)-2-acryloylamino-4-methyl-pentanoic acid {4-[3-chloro-4-(pyridin-2-ylmethoxy)-phenylamino]-quinazolin-6-yl}-amide]
21 |  |  | 0.019 µM | 0.68 µM | C=CC(=O)N1C[C@H](OC)C[C@H]1C(=O)Nc1ccc2ncnc(Nc3ccc(OCc4ccccn4)c(Cl)c3)c2c1 [Example 161, (2S,4R)-1-acryloyl-4-methoxy-pyrrolidine-2-carboxylic acid {4-[3-chloro-4-(pyridin-2-ylmethoxy)-phenylamino]-quinazolin-6-yl}-amide]
22 |  |  | 0.017 µM | 0.121 µM | C=CC(=O)N1CC=C[C@H]1C(=O)Nc1cc2c(Nc3ccc(OCc4ccccn4)c(Cl)c3)ncnc2cc1OC [Example 179, (2S)-1-acryloyl-2,5-dihydro-1H-pyrrol-2-carboxylic acid {4-[3-chloro-4-(pyridin-2-ylmethoxy)-phenylamino]-7-methoxy-quinazolin-6-yl}-amide]
23 |  |  | 0.009 µM | 0.128 µM | C=CC(=O)N1CCC1C(=O)Nc1cc2c(Nc3ccc(OCc4ccccn4)c(Cl)c3)ncnc2cc1OC (centres unmarked) [Example 182, 1-acryloyl-azetidine-2-carboxylic acid {4-[3-chloro-4-(pyridin-2-ylmethoxy)-phenylamino]-7-methoxy-quinazolin-6-yl}-amide]
24 |  |  | 0.008 µM | 0.073 µM | C=CC(=O)NCCC(=O)Nc1ccc2ncnc(Nc3ccc(OCc4cccc(C)n4)c(Cl)c3)c2c1 [Example 144, N-(2-{4-[3-chloro-4-(6-methyl-pyridin-2-ylmethoxy)-phenylamino]-quinazolin-6-ylcarbamoyl}-ethyl)-acrylamide]
25 |  |  | 0.006 µM | 0.024 µM | C=CC(=O)N1CCC[C@H]1C(=O)Nc1cc2c(Nc3ccc4c(cnn4Cc4cccc(F)c4)c3)ncnc2cc1OC [Example 188, (2S)-1-acryloyl-pyrrolidine-2-carboxylic acid {4-[1-(3-fluoro-benzyl)-1H-indazol-5-ylamino]-7-methoxy-quinazolin-6-yl}-amide]
26 |  |  | 0.003 µM | 0.022 µM | C=CC(=O)N1CCC[C@H]1C(=O)Nc1cc2c(Nc3ccc(OCc4ccccn4)c(Cl)c3)ncnc2cc1OCCF [Example 187, (2S)-1-acryloyl-pyrrolidine-2-carboxylic acid [4-[3-chloro-4-(pyridin-2-ylmethoxy)-phenylamino]-7-(2-fluoro-ethoxy)-quinazolin-6-yl]-amide]
27 |  |  | 0.003 µM | 0.105 µM | C=CC(=O)N1C[C@H](N(C)C)C[C@H]1C(=O)Nc1ccc2ncnc(Nc3ccc(OCc4ccccn4)c(Cl)c3)c2c1 [Example 151, (2S,4R)-1-acryloyl-4-dimethylamino-pyrrolidine-2-carboxylic acid {4-[3-chloro-4-(pyridin-2-ylmethoxy)-phenylamino]-quinazolin-6-yl}-amide]
28 |  |  | 0.003 µM | 0.022 µM | C=CC(=O)N1CCC[C@H]1C(=O)Nc1cc2c(Nc3ccc4c(cnn4Cc4ccccn4)c3)ncnc2cc1OC [Example 185, (2S)-1-acryloyl-pyrrolidine-2-carboxylic acid [7-methoxy-4-(1-pyridin-2-ylmethyl-1H-indazol-5-ylamino)-quinazolin-6-yl]-amide]
